Reference: patent US9220721B2, “Methods for heart regeneration” (The Salk Institute for Biological Studies, priority 2012, dated 2015)

Tested on: cmlc2:GFP transgenic fish embryos
Test: Morpholino and microRNA injections in zebrafish embryos
Format: in vivo
Details: injection at one-cell stage
Protocol: Morpholino and microRNA Injections in Zebrafish Embryos. Morpholinos (Gene Tools) were dissolved in water at a 2 mM stock concentration and diluted to a 2 ng/nl working concentration in PBS/phenol red solution. Embryo injections were performed by injecting ˜1 nl morpholino solution at the 1-cell stage using a FemtoJet (Eppendorf). For microRNA mimic injection, a miR-99/100 equimolar mixture at 2 ng/nl in PBS was employed. Morphants were evaluated at 24, 48 and 72 h in a StereoLumar stereoscope (Zeiss).

Substance	ventricle size
Fntb morpholino: translation-blocking morpholino 5′-GCGCCTCTTCCATGATGAGCTCTCA-3′ (SEQ ID NO: 1128) (all phosphorodiamidate morpholino (PMO))	significantly reduced ventricle size
Smarca5 morpholino: translation-blocking morpholino 5′-CTTCTTCCCGCTGCTGCTCCATGCT-3′ (SEQ ID NO: 1129) (all phosphorodiamidate morpholino (PMO))	significantly reduced ventricle size
